Earlier results on two substances are cited in PMC6054295 (Infection and Drug Resistance, 2018).

The test system of data set [1] is MEWO cells.
The test system of data set [2] is P. aeruginosa. Conditions: at concentrations > 100 μM.
For data set [3], the system named is 3T3 cells.

Where no end group is shown, it is not given here.

For “indolicidin: a proline- and tryptophan-rich peptide (ILPWKWPWWPWRR; ends and bridges not checked; UniProt P33046 131-143, looked up)”, the “concentration at which it behaves as a membrane-disrupting peptide” value is above 2.6 µM.

Take N-APPGARPPPGPPPPGPPPPGP-C [SP-B]: the cytotoxicity entry in data set [1] and in data set [3] was “noncytotoxic” throughout. In data set [2], the antibacterial activity result is “negligible antibacterial activity”.
